Columns and labels:
pDCs of HDs = test: TLR gene expression in purified pDCs from HDs cultured with cytokines or chemokines (qPCR); type: cell-based, human; conditions: 10 μg/ml each, 24 hours, pDCs from HDs
Procedure: (§1) PBMCs were prepared using Ficoll-Paque density gradient from fresh blood under internal Institutional Review Board-approved protocols. pDCs were isolated as previously described (Guiducci et al. 2008) using either using negative depletion (Miltenyi Biotech) or following cell sorting using a BD IFNLUX cell sorter. As part of the gating strategy, neutrophils were excluded by FSC/SSC and cells positive for CD14 (CD3 and CD19 as well) were first excluded in order to prevent the contamination by TLR8 positive cells and then positively gated on HLA-DR, CD123 and BDCA4 to purify the pDCs. All BDCA4+ cells also express BDCA2 (results not shown). As a result, pure pDCs were obtained and no markers for neutrophils (CD66) or myeloid cells were found by PCR. B cells were FACS sorted as CD19+ and monocytes as CD14+ cells. PBMCs were depleted of pDCs using BDCA4 beads from Miltenyi. pDCs were cultured at 10,000-30,000 cells per well in a 96-round bottom plate and incubated at 37° C., 5% CO2 and 95% humidity. After 24 hours of culture, the supernatant was collected for ELISA or Mutiplex cytokine assays. In some culture conditions, cells were cultured with the PI3Kδ inhibitor, CAL-101 (Selleck chemicals) for 24 hours. The RNA-based TLR8 agonist, ORN8-L previously described (Guidacci et al. 2013) was synthetized by Chemgenes Corporation. For the TLR8 activation assay, pDCs were incubated in complete media alone, 200 μg/ml ORN8-L in complete media or 200 μg/ml ORN8-L+ 10 μg/ml CXCL4 (R&D systems).
PCR reactions were performed as described previously with 10 ng of cDNA (Barrat et al. 2005). In brief, RNA was extracted from cells using the Qiagen RNeasy Mini Kit. Quantity of RNA was measured by Nanodrop and high-capacity cDNA Reverse Transcription kit was used to generate 20-50 ng cDNA. Gene expression levels were calculated based on relative threshold cycle (Ct) values. This was done using the formula Relative Ct=100×1.8 (HSK-GENE), where HSK is the mean CT of duplicate housekeeping gene runs (we used Ubiquitin), GENE is the mean CT of duplicate runs of the gene of interest, and 100 is arbitrarily chosen as a factor to bring all values above 0.
In particular, CXCL4 or IP-10 (two CXCR3B agonists) (10 μg/ml each) had no impact on TLR8 nor TLR7 and TLR9 expression levels in pDCs (FIG. 2C).

[1] = tested on: TLR8-mediated activation of SSc pDCs; test: TLR8 activation assay of pDCs from SSc patients (ORN-8L with or without CXCL4); type: cell-based, human; conditions: ORN-8L 200 μg/ml + CXCL4, 24 hours
Procedure: as §1
Supernatant from pDCs 24 hour culture was used for quantification of secreted chemokines and cytokines and measured with the use of an enzyme-linked immunosorbent assay (ELISA) or Luminex multiplex-beads immunoassay. CXCL4 ELISA (Ray Biotech) and IFNα, IP-10, IL-6, TNF Luminex assay (Millipore) was performed according to the manufacturer's protocol. Due to the variability in the number of cells obtained from the different patients and so we could compare the values across donors, all results were normalized to 10,000 cells. Of note, for all donors, pDCs were plated between 10,000-30,000 cells.
When purified pDCs from HDs or SSc patients were cultured with CXCL4 alone ([…]), there was no effect on IFN production.

[2] = tested on: TLR7-mediated activation of pDCs; type: cell-based, human; conditions: CXCL4 10 μg/ml; TLR7 agonist at suboptimal dose; similar in HDs and SSc patients
[3] = tested on: TLR9-mediated activation of human B cells; test: TLR9-mediated activation of human B cells (CpG with or without chemokines); type: cell-based
Procedure: as §1
IL-6, TNF, and IL-10 gene levels were measured at 6 hours post culture using PCR. The secretion of cytokines/chemokines in the supernatants was quantified using Luminex. CD83, CD80, CD86 and CD69 expression was measured by flow cytometry at 24 hour post culture.
Human B cells were purified and cultured for 6 hours or 24 hours either with medium only, with CpG-C (at 0.15 μM) alone or with a combination of CpG-C and CXCL4 (at 10 μg/ml). IL-6 gene levels was measured at 6 hour post culture by PCR and CD83, CD80, CD86 and CD69 expression was measured by flow cytometry at 24 hour post culture.
Purified B cells from HDs were cultured in media alone (control), with either a CpG TLR9 agonist (0.15 μM) or with CpG and either CXCL4, CXCL10, CXCL9, CXCL4, CXCL7 or CXCL12 (all at 10 μg/ml). IL-6 was quantified in the supernatants by ELISA.
Purified B cells from HDs were cultured in media alone (control), with either a CpG TLR9 agonist (0.25 μM) or with CpG and CXCL4 or CXCL10 (10 μg/ml) alone or in the presence of the CXCR3 inhibitor AMG487 at 0, 0.1, 1 or 10 μM for 6 hours or 24 hours. IL-6 was quantified by ELISA at 24 hours and IL-6 and TNF gene expression levels were quantified by q-PCR at 6 hours and CD83, CD80, CD86 and CD69 expression was measured by flow cytometry at 24 hours post culture.

[4] = tested on: TLR7-mediated activation of human B cells; test: TLR7-mediated activation of human B cells (R848 with or without CXCL4); type: cell-based; conditions: R848 0.15 μM + CXCL4 10 μg/ml
Procedure: IL-6 and TNF gene levels were measured at 6 hour post culture by PCR, secretion of IL-6 and TNF were quantified using luminex and CD83 and CD80 expression was measured by flow cytometry at 24 hour post culture.

[5] = CpG-B 0.15 μM + CXCL4 10 μg/ml, 6 hours

CXCL4: small chemokine of the CXC family, 70-amino acid protein released from alpha-granules of activated platelets
TLR8, TLR7 and TLR9 expression levels in pDCs (pDCs of HDs): no impact | IL-6 production in response to TLR8 [1]: no effect | TNF production in response to TLR8 [1]: no effect | production of IFN-α in response to TLR8 ([1]; p<0.001): significantly increased | production of IP-10 in response to TLR8 ([1]; p<0.001): significantly increased | TLR7 response (IFN-α) of pDCs [2]: little to no effect | effect of inhibition of CXCR3 on the chemokine's inhibition of TLR9 in B cells ([3]; CXCR3 inhibitor AMG487 0.1, 1 or 10 μM, CpG 0.25 μM, chemokine 10 μg/ml, 6 or 24 hours): no effect | activation of B cells via TLR9 as shown by the production of IL-6 ([3]; CpG 0.15 μM, chemokine 10 μg/ml, ELISA): inhibited | expression of IL-6 in B cells (PCR and protein) [3, 5]: negatively regulated | expression of IL-10 in B cells (PCR and protein) [3, 5]: negatively regulated | expression of TNF in B cells (PCR and protein) [3, 5]: negatively regulated | TLR9 activation of B cells (IL-6 gene; CD83, CD80, CD86, CD69) ([3]; CpG-C 0.15 μM + CXCL4 10 μg/ml, 6 or 24 hours): negatively regulated | gene expression or secretion of IL-6 when activated by TLR7 [4]: little effect | gene expression or secretion of TNF when activated by TLR7 [4]: little effect

From patent publication US12427183B2, “Methods of treating cancer, infectious disease, and autoimmune disease using chemokines” (New York Society for the Relief of the Ruptured and …, priority 2016, dated 2025)
